# Measurements published in PubChem BioAssay (NCI).
#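 Cells were grown in 96-well plates and exposed to each compound for 48 hours at five concentrations; endpoints were interpolated linearly between bracketing concentrations, or set to the highest concentration if not reached. TGI denotes the concentration required for complete inhibition of growth.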
# Legend:
# Experiment in all cases: NCI tumour cell line growth inhibition, 48 h
# M19-MEL melanoma = system: M19-MEL melanoma
# UACC-257 melanoma = system: UACC-257 melanoma
# CAKI-1 renal = system: CAKI-1 renal
# A498 renal = system: A498 renal
# HCT-15 colon = system: HCT-15 colon
# MALME-3M melanoma = system: MALME-3M melanoma
# SK-MEL-5 melanoma = system: SK-MEL-5 melanoma
# 786-0 renal = system: 786-0 renal
# DMS 273 small cell lung = system: DMS 273 small cell lung
# OVCAR-3 ovarian = system: OVCAR-3 ovarian
# SNB-19 CNS = system: SNB-19 CNS
# HT29 colon = system: HT29 colon
# SK-MEL-28 melanoma = system: SK-MEL-28 melanoma
# A549 NSCLC = system: A549 NSCLC
# SN12C renal = system: SN12C renal
# XF 498 CNS = system: XF 498 CNS
# SW-620 colon = system: SW-620 colon
# LOX IMVI melanoma = system: LOX IMVI melanoma
# TK-10 renal = system: TK-10 renal
# RXF 393 renal = system: RXF 393 renal
# KM20L2 colon = system: KM20L2 colon
# U251 CNS = system: U251 CNS
# HOP-92 NSCLC = system: HOP-92 NSCLC
# RXF-631 renal = system: RXF-631 renal
# M14 melanoma = system: M14 melanoma
# CCRF-CEM leukemia = system: CCRF-CEM leukemia
# SNB-78 CNS = system: SNB-78 CNS
# HL-60(TB) leukemia = system: HL-60(TB) leukemia
# MOLT-4 leukemia = system: MOLT-4 leukemia
# UACC-62 melanoma = system: UACC-62 melanoma
# NCI-H460 lung = system: NCI-H460 lung
# SNB-75 CNS = system: SNB-75 CNS
# UO-31 renal = system: UO-31 renal
# HCC-2998 colon = system: HCC-2998 colon
# NCI-H23 lung = system: NCI-H23 lung
# OVCAR-5 ovarian = system: OVCAR-5 ovarian
# DMS 114 small cell lung = system: DMS 114 small cell lung
# OVCAR-8 ovarian = system: OVCAR-8 ovarian
# SF-539 CNS = system: SF-539 CNS
# SR leukemia = system: SR leukemia
# SF-268 CNS = system: SF-268 CNS
# SK-MEL-2 melanoma = system: SK-MEL-2 melanoma
# EKVX NSCLC = system: EKVX NSCLC
# OVCAR-4 ovarian = system: OVCAR-4 ovarian
# DLD-1 colon = system: DLD-1 colon
# HCT-116 colon = system: HCT-116 colon
# NCI-H226 lung = system: NCI-H226 lung
# IGROV1 ovarian = system: IGROV1 ovarian
# K-562 leukemia = system: K-562 leukemia
# RPMI-8226 leukemia = system: RPMI-8226 leukemia
# ACHN renal = system: ACHN renal
# LXFL 529 NSCLC = system: LXFL 529 NSCLC
# SF-295 CNS = system: SF-295 CNS
# HOP-18 NSCLC = system: HOP-18 NSCLC
# SK-OV-3 ovarian = system: SK-OV-3 ovarian
# COLO 205 colon = system: COLO 205 colon
# HOP-62 NSCLC = system: HOP-62 NSCLC
# SN12K1 renal = system: SN12K1 renal
# NCI-H522 lung = system: NCI-H522 lung
# MCF7 breast = system: MCF7 breast
# P388 leukemia = system: P388 leukemia
# NCI/ADR-RES ovarian = system: NCI/ADR-RES ovarian
# P388/ADR leukemia = system: P388/ADR leukemia
# KM12 colon = system: KM12 colon
smiles,measurement,setting,value
O=C(O)CSc1n[nH]c(-c2ccccc2O)n1,TGI,M19-MEL melanoma,> 100 µM
same,TGI,UACC-257 melanoma,> 100 µM
same,TGI,CAKI-1 renal,> 100 µM
same,TGI,A498 renal,> 100 µM
same,TGI,HCT-15 colon,> 100 µM
same,TGI,MALME-3M melanoma,> 100 µM
same,TGI,SK-MEL-5 melanoma,> 100 µM
same,TGI,786-0 renal,> 100 µM
same,TGI,DMS 273 small cell lung,> 100 µM
same,TGI,OVCAR-3 ovarian,> 100 µM
same,TGI,SNB-19 CNS,> 100 µM
same,TGI,HT29 colon,> 100 µM
same,TGI,SK-MEL-28 melanoma,> 100 µM
same,TGI,A549 NSCLC,> 100 µM
same,TGI,SN12C renal,> 100 µM
same,TGI,XF 498 CNS,> 100 µM
same,TGI,SW-620 colon,> 100 µM
same,TGI,LOX IMVI melanoma,> 100 µM
same,TGI,TK-10 renal,> 100 µM
same,TGI,RXF 393 renal,> 100 µM
same,TGI,KM20L2 colon,> 100 µM
same,TGI,U251 CNS,> 100 µM
same,TGI,HOP-92 NSCLC,> 100 µM
same,TGI,RXF-631 renal,> 100 µM
same,TGI,M14 melanoma,> 100 µM
same,TGI,CCRF-CEM leukemia,> 100 µM
same,TGI,SNB-78 CNS,> 100 µM
same,TGI,HL-60(TB) leukemia,> 100 µM
same,TGI,MOLT-4 leukemia,> 100 µM
same,TGI,UACC-62 melanoma,> 100 µM
same,TGI,NCI-H460 lung,> 100 µM
same,TGI,SNB-75 CNS,> 100 µM
same,TGI,UO-31 renal,> 100 µM
same,TGI,HCC-2998 colon,> 100 µM
same,TGI,NCI-H23 lung,> 100 µM
same,TGI,OVCAR-5 ovarian,> 100 µM
same,TGI,DMS 114 small cell lung,> 100 µM
same,TGI,OVCAR-8 ovarian,> 100 µM
same,TGI,SF-539 CNS,> 100 µM
same,TGI,SR leukemia,> 100 µM
same,TGI,SF-268 CNS,> 100 µM
same,TGI,SK-MEL-2 melanoma,> 100 µM
same,TGI,EKVX NSCLC,> 100 µM
same,TGI,OVCAR-4 ovarian,> 100 µM
same,TGI,DLD-1 colon,> 100 µM
same,TGI,HCT-116 colon,> 100 µM
same,TGI,NCI-H226 lung,> 100 µM
same,TGI,IGROV1 ovarian,> 100 µM
same,TGI,K-562 leukemia,> 100 µM
same,TGI,RPMI-8226 leukemia,> 100 µM
same,TGI,ACHN renal,> 100 µM
same,TGI,LXFL 529 NSCLC,> 100 µM
same,TGI,SF-295 CNS,> 100 µM
CC1NC(=O)C(C)C(c2ccccc2)N(N=O)C1c1ccccc1 (centres undefined),TGI,HOP-18 NSCLC,> 100 µM
same,TGI,UACC-257 melanoma,> 100 µM
same,TGI,SK-OV-3 ovarian,> 79.1 µM
same,TGI,CAKI-1 renal,> 100 µM
same,TGI,COLO 205 colon,> 100 µM
same,TGI,A498 renal,> 100 µM
same,TGI,HCT-15 colon,> 100 µM
same,TGI,MALME-3M melanoma,> 100 µM
same,TGI,SK-MEL-5 melanoma,> 100 µM
same,TGI,HOP-62 NSCLC,> 100 µM
same,TGI,DMS 273 small cell lung,> 100 µM
same,TGI,OVCAR-3 ovarian,> 100 µM
same,TGI,SN12K1 renal,> 100 µM
same,TGI,SNB-19 CNS,> 100 µM
same,TGI,HT29 colon,> 100 µM
same,TGI,SK-MEL-28 melanoma,> 100 µM
same,TGI,A549 NSCLC,> 100 µM
same,TGI,SN12C renal,> 100 µM
same,TGI,XF 498 CNS,> 100 µM
same,TGI,SW-620 colon,> 100 µM
same,TGI,LOX IMVI melanoma,> 100 µM
same,TGI,RXF 393 renal,> 100 µM
same,TGI,KM20L2 colon,> 100 µM
same,TGI,U251 CNS,> 100 µM
same,TGI,HOP-92 NSCLC,> 100 µM
same,TGI,CCRF-CEM leukemia,> 100 µM
same,TGI,SNB-78 CNS,> 100 µM
same,TGI,HL-60(TB) leukemia,61.5 µM
same,TGI,NCI-H522 lung,> 100 µM
same,TGI,MOLT-4 leukemia,> 100 µM
same,TGI,UACC-62 melanoma,> 100 µM
same,TGI,NCI-H460 lung,> 100 µM
same,TGI,SNB-75 CNS,> 79.3 µM
same,TGI,UO-31 renal,> 100 µM
same,TGI,HCC-2998 colon,> 100 µM
same,TGI,NCI-H23 lung,> 100 µM
same,TGI,MCF7 breast,> 100 µM
same,TGI,OVCAR-5 ovarian,> 100 µM
same,TGI,DMS 114 small cell lung,> 100 µM
same,TGI,OVCAR-8 ovarian,> 100 µM
same,TGI,SF-539 CNS,> 100 µM
same,TGI,P388 leukemia,> 89.2 µM
same,TGI,NCI/ADR-RES ovarian,> 100 µM
same,TGI,SF-268 CNS,> 100 µM
same,TGI,SK-MEL-2 melanoma,> 100 µM
same,TGI,EKVX NSCLC,> 100 µM
same,TGI,OVCAR-4 ovarian,97.1 µM
same,TGI,DLD-1 colon,> 100 µM
same,TGI,HCT-116 colon,> 100 µM
same,TGI,NCI-H226 lung,> 100 µM
same,TGI,IGROV1 ovarian,> 100 µM
same,TGI,K-562 leukemia,> 100 µM
same,TGI,RPMI-8226 leukemia,> 100 µM
same,TGI,P388/ADR leukemia,> 100 µM
same,TGI,KM12 colon,> 100 µM
same,TGI,SF-295 CNS,> 100 µM
